{"source": "patent US20220023237A1", "about": "“ADDITIVE AND/OR SYNERGISTIC COMBINATIONS OF METFORMIN WITH NUTRACEUTICALS FOR THE PREVENTION, INHIBITION AND TREATMENT OF SARS-COV-2 AND ASSOCIATED COVID-19” (priority 2020, published 2022)", "origin": "cited, not measured here", "key": {"[1]": {"test_system": "LPS-challenged macrophages", "conditions": "pre-incubated 6 h, 0 to 50 μM, then LPS 24 h"}, "[2]": {"test_system": "BALB/c mice with LPS-induced ARDS"}, "[3]": {"test_system": "Nrf2 (+/+) primary peritoneal macrophages"}, "[4]": {"test_system": "mice challenged with endotoxin or live Escherichia coli", "conditions": "for concentration of IL-1α: controls 1187.0±278.64"}, "[5]": {"test_system": "lipopolysaccharide-induced inflammatory reactions"}, "[6]": {"test_system": "mice with experimental colitis"}, "[7]": {"test_system": "mice with LPS-induced ARDS"}, "[8]": {"test_system": "male Sprague-Dawley rats", "conditions": "EGCG 10 mg/kg intraperitoneally at 1 and 6 h after CL2P and every 12 h"}, "[9]": {"test_system": "rats subjected to myocardial ischemia and reperfusion", "conditions": "EGCG 10 mg/kg intravenously, then 10 mg/kg/h"}, "[10]": {"test_system": "mice"}, "[11]": {"test_system": "C57BL6 mice", "conditions": "EGCG 10 mg/kg intraperitoneally, 72 h after CL2P"}, "[12]": {"test_system": "macrophage foam cells", "conditions": "pretreatment with EGCG"}, "[13]": {"test_system": "lipopolysaccharide-activated macrophages", "conditions": "electrophoretic mobility shift assay"}}, "note": "Read-outs that look alike come from different tables or passages of the source."}
{"molecule": "C[S+]([O-])CCCCN=C=S", "note": "(stereo not shown) [sulforaphane, 1-isothiocyanato-4-(methylsulfinyl)-butane]", "values": [{"measurement": "expression of NO and cytokines", "setting": "[1]", "result": "able to prevent"}, {"measurement": "Nrf2/antioxidant response element (ARE) pathway", "setting": "[2]; pre-treatment", "result": "activated"}, {"measurement": "PGE2 production, COX-2 and MMP-9 protein expression, iNOS activity", "setting": "[2]; sulforaphane 50 mg/kg", "result": "significantly inhibited"}, {"measurement": "LDH activity, wet-to-dry ratio of the lungs, serum IL-6 and TNF-α, nuclear factor-κB protein expression", "setting": "[2]; sulforaphane 50 mg/kg, LPS 5 mg/kg 3 days later", "result": "significantly decreased"}, {"measurement": "HO-1 expression", "setting": "[3]; LPS-stimulated Nrf2 (+/+) macrophages", "result": "significantly augmented"}, {"measurement": "LPS-stimulated mRNA expression, protein expression and production of TNF-alpha, IL-1beta, COX-2 and iNOS", "setting": "[3]; pretreatment, Nrf2 (+/+) macrophages", "result": "potently inhibited"}]}
{"molecule": "CC1=CC(=O)C(C(C)C)=CC1=O", "note": "[thymoquinone]", "values": [{"measurement": "concentration of IL-1α", "setting": "[4]; 0.75 mg/kg dose", "result": "310.8 ± 70.93", "unit": "pg/mL"}, {"measurement": "IL-10 levels", "setting": "[4]; 0.75 mg/kg, controls 5505.2 ±333.96", "result": "2885.0 ± 553.98", "unit": "pg/mL"}, {"measurement": "concentration of IL-1α", "setting": "[4]; 1 mg/kg group", "result": "428.3 ± 71.32", "unit": "pg/mL"}, {"measurement": "levels of TNF-α and IL-2", "setting": "[4]; P values=0.1817 and 0.0851", "result": "relatively lower levels"}, {"measurement": "renal and hepatic biomarker profiles", "setting": "[4]; septic mice", "result": "improved"}, {"measurement": "reduction of mortality", "setting": "[4]; septic mice, thymoquinone intraperitoneal", "result": "80-90%"}, {"measurement": "lipopolysaccharide-induced inflammatory reactions", "setting": "[5]", "result": "suppressed effectively"}, {"measurement": "concentration of nitric oxide", "setting": "[5]; marker of inflammation", "result": "reduced significantly"}]}
{"molecule": "Epigallocatechin-3-gallate [EGCG]", "values": [{"measurement": "disease activity index (DAI) and spleen index (SI)", "setting": "[6]; 50 and 100 mg/kg/day, compared with the MD group", "result": "decreased"}, {"measurement": "HIF-1α and STAT3 protein expression in the colon", "setting": "[6]; mouse, in vivo", "result": "decreasing"}, {"measurement": "plasma levels of IL-10 and TGF-β1", "setting": "[6]; mouse, in vivo", "result": "increasing"}, {"measurement": "release of IL-6 and IL-17", "setting": "[6]; plasma", "result": "reduce"}, {"measurement": "expression of IκB-α", "setting": "[7]; EGCG 10 mg/kg ip", "result": "increased"}, {"measurement": "expression of TLR-4, MyD88, TRIF and p-p65 in the lung tissue", "setting": "[7]; EGCG 10 mg/kg ip", "result": "alleviated"}, {"measurement": "expression of TNF-α, IL-1β and IL-6 in the lung, serum and bronchoalveolar lavage fluid", "setting": "[7]; EGCG 10 mg/kg ip", "result": "significantly decreased"}, {"measurement": "expression of p65", "setting": "[7]; EGCG 10 mg/kg ip", "result": "no influence"}, {"measurement": "LPS-induced ARDS (blood gases, histological lesions, wet-to-dry weight ratios, MPO activity)", "setting": "[7]; EGCG 10 mg/kg ip 1 h before LPS 10 mg/kg ip", "result": "attenuated"}, {"measurement": "hypotension", "setting": "[8]", "result": "significantly improved"}, {"measurement": "myocardial damage and myeloperoxidase activity", "setting": "[9]", "result": "reduced"}, {"measurement": "plasma IL-6 and creatine phosphokinase levels", "setting": "[9]", "result": "decreased"}, {"measurement": "lethal sepsis", "setting": "[10]; first dose given 24 hours after cecal ligation and puncture", "result": "rescued"}, {"measurement": "lethal endotoxemia", "setting": "[10]; intraperitoneal administration", "result": "protected"}, {"measurement": "survival", "setting": "[11]", "result": "significantly improved"}, {"measurement": "TNF-α-induced downregulation of ABCA1 and decrease in cholesterol efflux to apoA1", "setting": "[12]", "result": "attenuated"}, {"measurement": "activation of nuclear factor-kappaB", "setting": "[13]", "result": "blocked"}]}
